The results in this text go back to ChEMBL document CHEMBL1152068, “A study of 3-amino-N-hydroxypropanesulfonamide derivatives as potential GABAB agonists and their fragmentation to 3-aminopropanesulfinic acid” (Bioorg Med Chem Lett, 1996).

Structures are written as SMILES.

One assay addresses GABA B receptor (Rattus norvegicus, UniProt O88871+Q9Z0U4). The assay can be described thus: Binding affinity against Gamma-aminobutyric acid type B receptor in rat brain synaptosomes after 30 minutes. The class given is subcellular.
Assay [1] addresses GABA-A receptor; anion channel. The assay can be described thus: Binding affinity against Gamma-aminobutyric acid A receptor in rat brain synaptosomes after 30 minutes. The class given is subcellular.
Assay [2] relates to Cavia porcellus. The assay can be described thus: Inhibitory effect on bronchospasm caused by vagal nerve stimulation (EFS) in anesthetized, mechanically ventilated guinea-pigs at 3 mg/kg after 10 minutes. The class given is functional. The settings on record: Bronchiole.
Assay [3] is filed under the species Cavia porcellus. The assay can be described thus: Compound was tested for its effect on EFS stimulated neuronal cholinergic contractions of guinea pig tracheal rings after 10 minutes. The settings on record: Trachea. The assay is classed as functional.
Assay [4] concerns GABA-A receptor; anion channel. The assay can be described thus: Binding affinity against Gamma-aminobutyric acid A receptor in rat brain synaptosomes after 30 minutes (inactive). The class given is subcellular.

GABA B receptor, sequence (Q9Z0U4 whole entry): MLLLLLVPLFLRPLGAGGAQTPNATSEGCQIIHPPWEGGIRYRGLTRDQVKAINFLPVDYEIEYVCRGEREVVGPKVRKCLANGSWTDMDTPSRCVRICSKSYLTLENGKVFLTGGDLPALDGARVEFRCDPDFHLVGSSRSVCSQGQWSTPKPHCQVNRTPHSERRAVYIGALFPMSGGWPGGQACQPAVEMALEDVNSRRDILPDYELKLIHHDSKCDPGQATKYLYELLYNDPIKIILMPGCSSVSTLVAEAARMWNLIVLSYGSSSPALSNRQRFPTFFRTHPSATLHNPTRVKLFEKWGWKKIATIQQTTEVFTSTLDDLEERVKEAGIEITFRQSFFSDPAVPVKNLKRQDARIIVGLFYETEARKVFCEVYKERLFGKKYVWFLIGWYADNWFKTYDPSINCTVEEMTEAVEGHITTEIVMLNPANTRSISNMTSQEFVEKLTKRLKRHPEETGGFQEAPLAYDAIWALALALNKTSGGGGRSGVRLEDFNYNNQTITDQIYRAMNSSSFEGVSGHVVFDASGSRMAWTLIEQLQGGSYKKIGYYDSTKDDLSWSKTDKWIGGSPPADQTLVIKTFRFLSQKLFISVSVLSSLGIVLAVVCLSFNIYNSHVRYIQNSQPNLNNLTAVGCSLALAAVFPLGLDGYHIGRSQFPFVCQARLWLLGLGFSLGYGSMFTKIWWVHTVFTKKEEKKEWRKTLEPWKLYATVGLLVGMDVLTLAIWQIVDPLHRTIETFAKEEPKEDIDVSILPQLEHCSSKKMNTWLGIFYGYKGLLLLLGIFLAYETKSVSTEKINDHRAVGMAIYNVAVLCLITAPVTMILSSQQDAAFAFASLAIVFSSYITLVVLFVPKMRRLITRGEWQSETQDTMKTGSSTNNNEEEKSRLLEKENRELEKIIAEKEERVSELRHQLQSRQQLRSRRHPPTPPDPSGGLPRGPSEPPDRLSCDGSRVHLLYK
GABA B receptor, sequence (O88871 whole entry): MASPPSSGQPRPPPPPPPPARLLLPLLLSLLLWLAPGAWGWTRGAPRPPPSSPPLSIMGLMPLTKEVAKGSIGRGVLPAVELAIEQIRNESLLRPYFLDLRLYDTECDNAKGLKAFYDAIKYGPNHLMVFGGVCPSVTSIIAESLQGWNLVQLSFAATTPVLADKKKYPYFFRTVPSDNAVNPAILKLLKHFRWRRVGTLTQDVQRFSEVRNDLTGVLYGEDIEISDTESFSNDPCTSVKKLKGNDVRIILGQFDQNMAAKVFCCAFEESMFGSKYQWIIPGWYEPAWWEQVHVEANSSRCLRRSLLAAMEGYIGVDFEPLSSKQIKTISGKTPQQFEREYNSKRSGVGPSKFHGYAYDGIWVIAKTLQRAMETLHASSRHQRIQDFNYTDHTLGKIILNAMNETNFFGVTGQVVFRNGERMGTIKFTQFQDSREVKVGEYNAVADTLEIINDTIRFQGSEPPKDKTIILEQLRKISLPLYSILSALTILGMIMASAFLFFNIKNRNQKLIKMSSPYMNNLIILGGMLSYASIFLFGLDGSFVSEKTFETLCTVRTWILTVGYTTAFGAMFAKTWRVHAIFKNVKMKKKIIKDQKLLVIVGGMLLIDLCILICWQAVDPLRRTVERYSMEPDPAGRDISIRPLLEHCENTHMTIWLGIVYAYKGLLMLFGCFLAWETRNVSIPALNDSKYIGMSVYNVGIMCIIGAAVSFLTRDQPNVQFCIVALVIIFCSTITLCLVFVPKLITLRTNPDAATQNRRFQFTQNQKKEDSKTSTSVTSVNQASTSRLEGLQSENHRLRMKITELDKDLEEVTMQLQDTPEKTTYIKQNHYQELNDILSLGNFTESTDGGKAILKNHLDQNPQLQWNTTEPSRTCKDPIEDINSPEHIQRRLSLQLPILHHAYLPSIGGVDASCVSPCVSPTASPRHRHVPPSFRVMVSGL

Turning to `NCCCS(=O)(=O)N(O)CC(=O)O`, the IC50 at GABA B receptor is 80 nM; in assay [1], 620 nM.
Regarding `NCCCS(=O)(=O)NO`, the values for the IC50 (on GABA B receptor; in assay [1]; in the assay listed under Cavia porcellus [3]) were 280 nM, 2000 nM and 16000 nM, respectively. The molecule also returned an inhibition in vivo at 3 mg/kg in the assay with Cavia porcellus [2] of 0%.
With `NCCCS(=O)(=O)N(O)Cc1ccccc1`, the IC50 on GABA B receptor stood at 40 nM; in assay [1], 230 nM; in the assay filed under Cavia porcellus [3], 4200 nM. Also, 3 mg/kg produced 17% inhibition in vivo with Cavia porcellus [2].
In the case of `CN(O)S(=O)(=O)CCCN`, the 50% inhibitory concentration (IC50) at GABA B receptor was 40 nM; in assay [1], 280 nM; in the assay listed under Cavia porcellus [3], 2600 nM. Moreover, the inhibition in vivo at 3 mg/kg with Cavia porcellus [2] amounted to 17%.
`NCC(CC(=O)O)c1ccc(Cl)cc1` (racemic) [BACLOFEN] had an inhibition in vivo at 3 mg/kg in the assay with Cavia porcellus [2] of 75%. Besides, the half-maximal inhibitory concentration (IC50) entry in assay [4] is “Not Active”; in the assay listed under Cavia porcellus [3], 6400 nM.
For `NCCCS(=O)O` [HOMOHYPOTAURINE], the results for the IC50 (at GABA B receptor; in assay [1]; in the assay filed under Cavia porcellus [3]) were 60 nM, 470 nM and 1700 nM, respectively. This molecule also returned an inhibition in vivo at 3 mg/kg with Cavia porcellus [2] of 25%.
As to `NCCCS(=O)(=O)O` [TRAMIPROSATE], the results for the IC50 (at GABA B receptor; in assay [1]) were 30000 nM and 300 nM, respectively.

A word on the IC50: it is the concentration at which inhibition is half-maximal. What is called inhibition in vivo is the relative decrease from the control value, in per cent. Low values mean little suppression, high ones strong suppression.
